Measurements from patent US11331369B2, “Endoparasitic depsipeptides” (Zoetis Services LLC, priority 2017, dated 2022).

What was measured:
[1] = tested on: 4th stage larvae (L4) of Dirofilaria immitis; assay: Dirofilaria immitis, L4 Stage (DiL4) In Vitro Assay; format: cell-based; conditions: Dirofilaria immitis, 72 h, read-out: DiL4 Minimum Effective Dose (MED), approximately 72 hours incubation; L4 larvae assessed for survival or paralysis
[2] = tested on: microfilariae of Dirofilaria immitis; assay: Dirofilaria immitis, Microfilaria (DiMF) In vitro Assay; format: cell-based; conditions: 72 h, read-out: DiMF Minimum Effective Dose (MED), approximately 72 hours incubation, microfilariae assessed for survival or paralysis

Work on `CCOc1cn(Cc2ccc(C[C@H]3OC(=O)[C@H](CC(C)C)N(C)C(=O)[C@@H](C)OC(=O)[C@H](CC(C)C)N(C)C(=O)[C@@H](Cc4ccc(Cn5ncc(OCC)c5C)cc4)OC(=O)[C@H](CC(C)C)N(C)C(=O)[C@@H](C)OC(=O)[C@H](CC(C)C)N(C)C3=O)cc2)nc1C` [Example 1a-38, (3S,6R,9S,12R,15S,18R,21S,24R)-6-[[4-[(4-ethoxy-3-methyl-pyrazol-1-yl)methyl]phenyl]methyl]-18-[[4-[(4-ethoxy-5-methyl-pyrazol-1-yl)methyl]phenyl]methyl]-3,9,15,21-tetraisobutyl-4,10,12,16,22,24-hexamethyl-1,7,13,19-tetraoxa-4,10,16,22-tetrazacyclotetracosane-2,5,8,11,14,17,20,23-octaone] yielded a minimal effective concentration [1] of 0.001 to 0.01 µM and a minimal effective concentration [2] of 0.001 to 0.01 µM.

With `Cc1nn(Cc2ccc(C[C@H]3OC(=O)[C@H](CC(C)C)N(C)C(=O)[C@@H](C)OC(=O)[C@H](CC(C)C)N(C)C(=O)[C@@H](Cc4ccc(Cn5ncc(OC(C)C)c5C)cc4)OC(=O)[C@H](CC(C)C)N(C)C(=O)[C@@H](C)OC(=O)[C@H](CC(C)C)N(C)C3=O)cc2)cc1OC(C)C` [Example 1a-39, (3S,6R,9S,12R,15S,18R,21S,24R)-3,9,15,21-tetraisobutyl-6-[[4-[(4-isopropoxy-3-methyl-pyrazol-1-yl)methyl]phenyl]methyl]-18-[[4-[(4-isopropoxy-5-methyl-pyrazol-1-yl)methyl]phenyl]methyl]-4,10,12,16,22,24-hexamethyl-1,7,13,19-tetraoxa-4,10,16,22-tetrazacyclotetracosane-2,5,8,11,14,17,20,23-octaone] the minimal effective concentration [1] was 0.001 to 0.01 µM and the minimal effective concentration [2] was 0.01 to 0.1 µM.

With `CC(C)C#Cc1cnn(Cc2ccc(C[C@H]3OC(=O)[C@H](CC(C)C)N(C)C(=O)[C@@H](C)OC(=O)[C@H](CC(C)C)N(C)C(=O)[C@@H](Cc4ccc(Cn5cc(C#CC(C)C)cn5)cc4)OC(=O)[C@H](CC(C)C)N(C)C(=O)[C@@H](C)OC(=O)[C@H](CC(C)C)N(C)C3=O)cc2)c1` [Example 1b-112, (3S,6R,9S,12R,15S,18R,21S,24R)-3,9,15,21-tetraisobutyl-4,6,10,16,18,22-hexamethyl-12,24-bis(4-((4-(3-methylbut-1-yn-1-yl)-1H-pyrazol-1-yl)methyl)benzyl)-1,7,13,19-tetraoxa-4,10,16,22-tetraazacyclotetracosan-2,5,8,11,14,17,20,23-octaone] the minimal effective concentration [1] was 0.0001 to 0.001 µM and the minimal effective concentration [2] was 0.01 to 0.1 µM.

With `CC(C)C[C@H]1C(=O)O[C@H](Cc2ccc(Cn3cc(C#CC4CC4)cn3)cc2)C(=O)N(C)[C@@H](CC(C)C)C(=O)O[C@H](C)C(=O)N(C)[C@@H](CC(C)C)C(=O)O[C@H](Cc2ccc(Cn3cc(C#CC4CC4)cn3)cc2)C(=O)N(C)[C@@H](CC(C)C)C(=O)O[C@H](C)C(=O)N1C` [Example 1b-113, (3S,6R,9S,12R,15S,18R,21S,24R)-6,18-bis(4-((4-(cyclopropylethynyl)-1H-pyrazol-1-yl)methyl)benzyl)-3,9,15,21-tetraisobutyl-4, 10,12,16,22,24-hexamethyl-1,7,13,19-tetraoxa-4,10,16,22-tetraazacyclotetracosan-2,5,8,11,14,17,20,23-octaone] the minimal effective concentration [1] was 0.0001 to 0.001 µM and the minimal effective concentration [2] was 0.01 to 0.1 µM.

Work on `CC(C)C[C@H]1C(=O)O[C@H](Cc2ccc(Cn3nccc3-c3ccccc3)cc2)C(=O)N(C)[C@@H](CC(C)C)C(=O)O[C@H](C)C(=O)N(C)[C@@H](CC(C)C)C(=O)O[C@H](Cc2ccc(Cn3nccc3-c3ccccc3)cc2)C(=O)N(C)[C@@H](CC(C)C)C(=O)O[C@H](C)C(=O)N1C` [Example 1b-128, (3S,6R,9S,12R,15S,18R,21S,24R)-3,9,15,21-tetraisobutyl-4,6,10,16,18,22-hexamethyl-12,24-bis(4-((5-phenyl-1H-pyrazol-1-yl)methyl)benzyl)-1,7,13,19-tetraoxa-4,10,16,22-tetraazacyclotetracosan-2,5,8,11,14,17,20,23-octaone] yielded a minimal effective concentration [1] of 0.001 to 0.01 µM and a minimal effective concentration [2] of 0.01 to 0.1 µM.
